Reference: US20240262917A1, “ANTIBODIES AGAINST ALK AND METHODS OF USE THEREOF” (Dana-Farber Cancer Institute, Inc., priority 2021, published 2024)

Assays:
NGP and IMR-5 NB cells = assay: Transwell migration assay after MMP-9 inhibitor treatment; assay type: cell-based, human; details: CTK8G1150 (2 µM) 16 hr., transwell migration 48 hr.
Description: (§1) (A) WB analysis of ALK expression in lysates and CM of NGP cells treated with the broad-spectrum protease inhibitor GM6001 and the MMP-9/13 inhibitor CAS 204140-01-2, at the indicated doses, for 12 hr. Untreated (U) or DMSO-treated cells were used as controls. The 8G7 N-terminal anti-ALK antibody was used to detect the shed fragment in CM and a C-terminal anti-ALK antibody used for the cell lysates in this and subsequent panels. β-actin is used as a loading control throughout this figure. (B) WB analysis of ALK expression in NGP cells treated with the MMP-9 (CTK8G1150) and MMP-3/12/13 (MMP408) inhibitors (2 μM×12 hr.). (C) WB analysis of ALK expression in the indicated NB cell lines treated with or without CTK8G1150 (2 μM for 12 hr.). (D) WB analysis of MMP-9 and ALK expression in NGP and BE (2)-C NB cells expressing either a control shRNA (shGFP) or two different shRNAs against MMP-9. (E) Crystal violet-stained images of NGP and IMR-5 NB cells treated with CTK8G1150 ([…]) or DMSO for 16 hr. and then subjected to transwell migration assays for 48 hr. (left). Scale bar, 100 μm. Quantification of migration (right) reported as means±SD; ** p<0.01, n=4. See also, FIG. 14.
Cell migration was measured using transwell chambers (Falcon; cell culture inserts with 8 μm pores) and a 24-well plate as the lower chamber. […]

ALK ECD cleavage = assay: WB analysis of ALK ECD cleavage in cells treated with MMP inhibitors; assay type: cell-based; details: for ALK ECD cleavage / shed fragment: 2 μM×12 hr.; for levels of the shed ALK ECD fragment in media from treated cells: indicated doses
Description: as §1
(A) Immunoblot analyses of ALK expression in NGP cells after shRNA depletion of ADAM17 or ADAM10. Five separate shRNAs for ADAM17 and two shRNAs for ADAM10 were used. GADPH or β-actin were included as internal loading controls in this and subsequent panels. (B) Schematic illustration of the protease predicted to cleave ALK at the identified ECD cleavage site (Asn654-Leu655) generated using PROSPER and CleavPredict software. FIG. 14B discloses SEQ ID NO: 73. (C) WB analysis of ALK expression in the indicated lysates or conditioned media from cells engineered to express WT ALK and treated with or without the MMP-9 inhibitor, CTK8G1150 (2 μM for 12 hr.). Untreated cells or cells treated with DMSO were used as controls. The 8G7 N-terminal anti-ALK antibody was used to detect the shed fragment in conditioned medium (CM) and a C-terminal anti-ALK antibody was used for the cell lysates in this and subsequent panels. (D) WB analysis of ALK expression in NGP cells treated with the indicated concentrations of CTK8G1150 for 12 hr. (E) WB analysis of ALK expression in NGP cells treated with CTK8G1150 (2 μM) for the indicated time periods. (F) WB analysis of ALK following incubation of recombinant MMP-9 to ALK protein purified from 293T cells engineered to express WT or ALK LF655del.
Most receptor tyrosine kinases (RTKs) undergo ECD cleavage by proteases known as sheddases, that include matrix metalloproteinases (MMPs) and A disintegrin and metalloproteinases (ADAMs) (Kreitman et al., 2018). These zinc-dependent, membrane-associated or secreted proteases cleave cell surface transmembrane proteins that play a primary role in the degradation of extracellular matrix proteins, thus affecting multiple biological functions, such as cell signaling, growth factor activation and cytokine release. […] We next determined whether ALK could be cleaved by MMP-9 in vitro (FIG. 14, panel F). […] Finally, to confirm the role of MMP-9 in ALK cleavage, we genetically depleted this protease through shRNA knockdown in two NB cell lines [NGP and BE(2)-C], observing a significant decrease in the 140 kDa product resulting from inhibition of cleavage (FIG. 7, panel D). Depletion of MMP-2, by contrast, led to only a slight decrease in cleavage.
Cell lysates were prepared in NP-40 buffer (Invitrogen) containing complete protease inhibitor (Roche), phosphatase inhibitor (Roche) and phenylmethylsulfonyl fluoride (PMSF). Lysates were incubated on ice for 20 min and centrifuged at 16,000 g for 15 min at 4° C. Protein concentrations of the supernatants were determined with the DC protein assay kit (Bio-Rad). Protein samples were denatured using NuPAGE LDS sample buffer (Invitrogen) and NuPAGE sample reducing agent (Invitrogen). […]

ALK-positive NSCLC = details: cited from earlier work
neuroblastoma = details: human, in vivo; cited from earlier work

Compound: CCN(CC)Cc1cc(C)c(N(Cc2ccccc2)S(=O)(=O)c2ccc(OC)cc2)c(C(=O)NO)c1 [CTK8G1150]
- migration of NB cells that endogenously expressed WT ALK (NGP and IMR-5 NB cells): significantly suppressed the migration
- inhibition of ECD cleavage in cells engineered to overexpress WT ALK (ALK ECD cleavage; 293T and NIH3T3 cells, 2 μM for 12 hr.): significant inhibition of ECD cleavage
- ECD cleavage in endogenous WT ALK-expressing NB cell lines (ALK ECD cleavage; NGP NB cells and four additional NB cell lines, 2 μM for 12 hr.): inhibited ECD cleavage
- period over which ALK ECD cleavage disruption was maintained (ALK ECD cleavage; NGP cells, 2 μM): > 52 h
- ALK ECD cleavage / shed fragment (ALK ECD cleavage; NGP cells): produced a marked decrease in the shed fragment
- dose dependence of ALK ECD cleavage disruption (ALK ECD cleavage; NGP cells, indicated concentrations, 12 hr.): disrupted in a dose-dependent manner

Compound: CNC(=O)[C@H](Cc1c[nH]c2ccccc12)NC(=O)[C@@H](CC(=O)NO)CC(C)C [GM6001]
- levels of the shed ALK ECD fragment in media from treated cells (ALK ECD cleavage; NGP cells, 12 hr.): caused a decrease in the levels of the shed ALK ECD fragment

Compound: COc1ccc(S(=O)(=O)N2CCN(C(=O)c3ccc(-c4ccccc4)cc3)CC2C(=O)NO)cc1 (centres unmarked) [CAS 204140-01-2]
- levels of the shed ALK ECD fragment in media from treated cells (ALK ECD cleavage; NGP cells, 12 hr.): caused a decrease in the levels of the shed ALK ECD fragment

Compound: Cc1cc(Nc2ncc(Cl)c(Nc3ccccc3S(=O)(=O)C(C)C)n2)c(OC(C)C)cc1C1CCNCC1 [ceritinib]
- median duration of response (ALK-positive NSCLC): 16.6 months

Compound: C[C@@H](Oc1cc(-c2cnn(C3CCNCC3)c2)cnc1N)c1c(Cl)ccc(F)c1Cl [crizotinib]
- durability of responses in neuroblastoma patients (neuroblastoma): has not shown durable responses

Compound: COC(=O)Nc1ccc2oc3cc(S(=O)(=O)N[C@@H](C(=O)O)C(C)C)ccc3c2c1 [MMP408]
- ALK ECD cleavage / shed fragment (ALK ECD cleavage; NGP cells): did not affect cleavage
